Measurements: patent publication US20230330045A1 (priority 2020, published 2023)
Where two headings read alike, the source gives them in different places.

Experiments:
NMDA = assay: SafetyScreen44 binding assay NMDA; conditions: at 1 μM; antagonist radioligand
Source text: (§1) This panel included 38 binding assays and six functional assays of well-established targets and pathways that lead to off-target adverse drug reactions.

beta 2 (h) = beta 2 (h) (Homo sapiens, UniProt P07550); assay: SafetyScreen44 binding assay beta 2 (h); conditions: antagonist radioligand, read-out: % Inhibition of Specific Control Binding
Source text: as §1

M3 (h) = M3 (h) (Homo sapiens, UniProt P20309); assay: SafetyScreen44 binding assay M3 (h); conditions: antagonist radioligand, read-out: % Inhibition of Specific Control Binding
Source text: as §1

5-HT1B (h) = 5-HT1B (h) (Homo sapiens, UniProt P28222); assay: SafetyScreen44 binding assay 5-HT1B (h); conditions: antagonist radioligand, read-out: % Inhibition of Specific Control Binding
Sequence of 5-HT1B (h) (P28222 whole entry): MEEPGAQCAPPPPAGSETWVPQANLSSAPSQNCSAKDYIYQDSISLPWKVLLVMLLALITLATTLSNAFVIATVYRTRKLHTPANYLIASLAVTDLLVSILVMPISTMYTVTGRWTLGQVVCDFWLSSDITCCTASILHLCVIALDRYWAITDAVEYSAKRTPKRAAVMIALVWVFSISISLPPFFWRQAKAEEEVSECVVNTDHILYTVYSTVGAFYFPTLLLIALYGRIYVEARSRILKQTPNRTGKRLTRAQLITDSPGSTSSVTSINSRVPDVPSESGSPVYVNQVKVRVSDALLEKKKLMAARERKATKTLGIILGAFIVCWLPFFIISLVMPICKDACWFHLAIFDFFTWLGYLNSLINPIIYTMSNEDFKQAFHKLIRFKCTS
Source text: as §1

[1] = biological target: eel acetylcholinesterase (AChE) (Electrophorus electricus, UniProt O42275); assay: Eel AChE fluorescence assay (AMPLEX Red kit); type: biochemical
Sequence of eel acetylcholinesterase (AChE) (O42275 24-633): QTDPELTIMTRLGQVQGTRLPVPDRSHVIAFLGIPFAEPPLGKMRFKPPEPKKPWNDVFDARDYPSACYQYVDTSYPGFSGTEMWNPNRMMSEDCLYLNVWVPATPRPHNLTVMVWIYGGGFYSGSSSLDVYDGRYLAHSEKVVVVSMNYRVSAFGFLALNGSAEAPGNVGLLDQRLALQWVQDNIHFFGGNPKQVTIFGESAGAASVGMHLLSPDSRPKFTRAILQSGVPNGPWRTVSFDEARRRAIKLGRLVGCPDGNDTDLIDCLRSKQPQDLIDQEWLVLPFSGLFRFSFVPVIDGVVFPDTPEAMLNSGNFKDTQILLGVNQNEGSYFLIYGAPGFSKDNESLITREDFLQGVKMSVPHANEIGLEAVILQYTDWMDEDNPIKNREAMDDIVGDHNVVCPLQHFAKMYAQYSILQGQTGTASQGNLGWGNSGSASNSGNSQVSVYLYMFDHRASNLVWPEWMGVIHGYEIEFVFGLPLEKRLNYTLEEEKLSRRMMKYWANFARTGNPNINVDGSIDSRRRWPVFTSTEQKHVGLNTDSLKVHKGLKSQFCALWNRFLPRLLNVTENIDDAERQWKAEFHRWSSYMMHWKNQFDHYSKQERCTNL
Experimental: Enzymatic reactions consisted of 50 μM acetylcholine, 200 μM AIVIPLEX™ Red reagent, 1 U/mL horseradish peroxidase, 0.1 U/mL choline oxidase and 0.096 U/mL acetylcholinesterase, with 30 1% DMSO. […] Control reactions lacking acetylcholinesterase but containing 5 μM H2O2 in presence of compounds were analyzed at the same wavelength to exclude compounds that display assay interference. Dose-response curves were performed in duplicate.

H2 (h) = H2 (h) (Homo sapiens, UniProt P25021); assay: SafetyScreen44 binding assay H2 (h); conditions: antagonist radioligand, read-out: % Inhibition of Specific Control Binding
Sequence of H2 (h) (P25021 whole entry): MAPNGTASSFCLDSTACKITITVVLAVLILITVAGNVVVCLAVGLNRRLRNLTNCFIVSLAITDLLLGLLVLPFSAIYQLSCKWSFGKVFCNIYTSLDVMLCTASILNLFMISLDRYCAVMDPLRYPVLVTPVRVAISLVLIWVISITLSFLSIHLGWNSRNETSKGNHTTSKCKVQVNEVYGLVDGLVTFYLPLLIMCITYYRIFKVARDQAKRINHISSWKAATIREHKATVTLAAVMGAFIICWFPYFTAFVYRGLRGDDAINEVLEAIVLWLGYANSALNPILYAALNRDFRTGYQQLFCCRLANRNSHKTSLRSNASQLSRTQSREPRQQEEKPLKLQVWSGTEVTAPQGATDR
Source text: as §1

5-HT1A (h) = 5-HT1A (h) (Homo sapiens, UniProt P08908); assay: SafetyScreen44 binding assay 5-HT1A (h); conditions: agonist radioligand, read-out: % Inhibition of Specific Control Binding
Source text: as §1

kappa (h) (KOP) = kappa (h) (KOP) (Homo sapiens, UniProt P41145); assay: SafetyScreen44 binding assay kappa (h) (KOP); conditions: agonist radioligand, read-out: % Inhibition of Specific Control Binding
Source text: as §1

[2] = biological target: human butyrylcholinesterase (BuChE) (Homo sapiens, UniProt P06276); assay: Human BuChE colorimetric activity kit assay; type: biochemical
Sequence of human butyrylcholinesterase (BuChE) (P06276 29-602): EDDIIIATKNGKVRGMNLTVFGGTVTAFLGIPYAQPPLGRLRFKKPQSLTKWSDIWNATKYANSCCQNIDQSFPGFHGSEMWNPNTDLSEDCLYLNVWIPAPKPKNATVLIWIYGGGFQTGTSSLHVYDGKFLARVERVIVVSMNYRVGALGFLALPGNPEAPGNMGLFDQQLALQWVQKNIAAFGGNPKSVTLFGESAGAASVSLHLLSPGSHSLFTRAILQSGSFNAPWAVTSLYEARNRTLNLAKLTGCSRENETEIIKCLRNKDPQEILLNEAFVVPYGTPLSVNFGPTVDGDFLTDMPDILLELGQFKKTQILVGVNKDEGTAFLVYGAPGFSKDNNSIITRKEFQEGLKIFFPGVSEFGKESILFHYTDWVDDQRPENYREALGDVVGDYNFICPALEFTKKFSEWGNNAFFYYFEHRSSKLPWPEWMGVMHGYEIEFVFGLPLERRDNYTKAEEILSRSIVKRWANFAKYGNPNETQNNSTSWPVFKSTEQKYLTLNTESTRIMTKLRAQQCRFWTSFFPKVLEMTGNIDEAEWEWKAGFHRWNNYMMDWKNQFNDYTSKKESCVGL
Experimental: Reactions were performed in 384-well plates (781162, Greiner BioOne, GmbH, Kremsmunster, Austria) with 1% DMSO, according to the manufacturer's instructions with a few modifications. Compounds were incubated with enzyme for 30 minutes at room temperature before addition of substrate. Total volume of the reaction was 100 μL, we use 5 μL enzyme and kinetic reactions were performed at 30° C. for 60 minutes using a microplate reader sold under the tradename SPECTRAMAX™ iD5 (Molecular Devices, San Jose, California, United States of America) and an absorbance of 412 nm. Percent activity was calculated by calculating the slope of each reaction as stated above and comparing the positive control (PC) to sample (S): % Relative activity=SlopeS/SlopePCx100. We evaluated if assay reagents could interfere with the absorbance by adding compound or DMSO to a 150 μM solution of 5-thio-2-nitrobenzoic acid and measuring at […].

alpha 1A (h) = alpha 1A (h) (Homo sapiens, UniProt P35348); assay: SafetyScreen44 binding assay alpha 1A (h); conditions: antagonist radioligand, read-out: % Inhibition of Specific Control Binding
Source text: as §1

beta 1 (h) = beta 1 (h) (Homo sapiens, UniProt P08588); assay: SafetyScreen44 binding assay beta 1 (h); conditions: agonist radioligand, read-out: % Inhibition of Specific Control Binding
Source text: as §1

5-HT2B (h) = 5-HT2B (h) (Homo sapiens, UniProt P41595); assay: SafetyScreen44 binding assay 5-HT2B (h); conditions: agonist radioligand, read-out: % Inhibition of Specific Control Binding
Source text: as §1

hERG potassium channel = hERG potassium channel (Homo sapiens, UniProt Q12809); assay: SafetyScreen44 binding assay Potassium Channel hERG (human)-[3H] Dofetilide; conditions: probe [3H] Dofetilide, read-out: % Inhibition of Specific Control Binding
Source text: as §1

5-HT2A (h) = 5-HT2A (h) (Homo sapiens, UniProt P28223); assay: SafetyScreen44 binding assay 5-HT2A (h); conditions: agonist radioligand, read-out: % Inhibition of Specific Control Binding
Source text: as §1

COX2(h) = COX2(h) (Homo sapiens, UniProt P35354); assay: SafetyScreen44 enzyme assay COX2(h); type: biochemical; conditions: read-out: % Inhibition of Control Values
Source text: as §1

dopamine transporter (h) = dopamine transporter (h) (Homo sapiens, UniProt Q01959); assay: SafetyScreen44 binding assay dopamine transporter (h); conditions: antagonist radioligand, read-out: % Inhibition of Specific Control Binding
Source text: as §1

ETA (h) = ETA (h) (Homo sapiens, UniProt P25101); assay: SafetyScreen44 binding assay ETA (h); conditions: agonist radioligand, read-out: % Inhibition of Specific Control Binding
Source text: as §1

mu (MOP) (h) = mu (MOP) (h) (Homo sapiens, UniProt P35372); assay: SafetyScreen44 binding assay mu (MOP) (h); conditions: agonist radioligand, read-out: % Inhibition of Specific Control Binding
Sequence of mu (MOP) (h) (P35372 whole entry): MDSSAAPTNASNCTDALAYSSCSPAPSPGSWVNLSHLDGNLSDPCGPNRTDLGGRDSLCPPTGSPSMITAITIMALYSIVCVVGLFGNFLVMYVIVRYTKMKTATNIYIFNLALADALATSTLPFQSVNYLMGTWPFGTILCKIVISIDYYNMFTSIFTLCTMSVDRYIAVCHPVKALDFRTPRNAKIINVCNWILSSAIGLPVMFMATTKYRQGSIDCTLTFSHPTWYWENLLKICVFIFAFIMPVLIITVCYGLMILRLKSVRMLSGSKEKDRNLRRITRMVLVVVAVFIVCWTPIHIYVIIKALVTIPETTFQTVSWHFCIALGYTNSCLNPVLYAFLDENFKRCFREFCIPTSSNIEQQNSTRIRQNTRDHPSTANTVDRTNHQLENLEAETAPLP
Source text: as §1

PDE3A (h) = PDE3A (h) (Homo sapiens, UniProt Q14432); assay: SafetyScreen44 enzyme assay PDE3A (h); type: biochemical; conditions: read-out: % Inhibition of Control Values
Source text: as §1

PDE4D2 (h) = PDE4D2 (h) (Homo sapiens, UniProt Q08499); assay: SafetyScreen44 enzyme assay PDE4D2 (h); type: biochemical; conditions: read-out: % Inhibition of Control Values
Source text: as §1

A2A (h) = A2A (h) (Homo sapiens, UniProt P29274); assay: SafetyScreen44 binding assay A2A (h); conditions: agonist radioligand, read-out: % Inhibition of Specific Control Binding
Source text: as §1

Lck kinase (h) = Lck kinase (h) (Homo sapiens, UniProt P06239); assay: SafetyScreen44 enzyme assay Lck kinase (h); type: biochemical; conditions: read-out: % Inhibition of Control Values
Source text: as §1

H1 (h) = H1 (h) (Homo sapiens, UniProt P35367); assay: SafetyScreen44 binding assay H1 (h); conditions: antagonist radioligand, read-out: % Inhibition of Specific Control Binding
Source text: as §1

M1 (h) = M1 (h) (Homo sapiens, UniProt P11229); assay: SafetyScreen44 binding assay M1 (h); conditions: antagonist radioligand, read-out: % Inhibition of Specific Control Binding
Source text: as §1

D2S (h) = D2S (h) (Homo sapiens, UniProt P14416); assay: SafetyScreen44 binding assay D2S (h); conditions: agonist radioligand, read-out: % Inhibition of Specific Control Binding
Sequence of D2S (h) (P14416 1-414 isoform P14416-2): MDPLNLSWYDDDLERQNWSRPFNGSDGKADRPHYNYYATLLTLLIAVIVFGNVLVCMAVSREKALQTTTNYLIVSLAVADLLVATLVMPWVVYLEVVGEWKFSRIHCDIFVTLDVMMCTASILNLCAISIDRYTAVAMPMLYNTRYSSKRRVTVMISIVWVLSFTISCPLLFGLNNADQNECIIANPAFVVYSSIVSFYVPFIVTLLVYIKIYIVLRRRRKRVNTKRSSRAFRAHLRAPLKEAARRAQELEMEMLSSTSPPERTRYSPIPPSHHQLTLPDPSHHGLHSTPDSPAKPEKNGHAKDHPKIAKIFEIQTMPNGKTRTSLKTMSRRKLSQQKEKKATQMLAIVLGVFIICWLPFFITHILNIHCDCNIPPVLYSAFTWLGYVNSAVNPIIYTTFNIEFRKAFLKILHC
Source text: as §1

CB2 (h) = CB2 (h) (Homo sapiens, UniProt P34972); assay: SafetyScreen44 binding assay CB2 (h); conditions: agonist radioligand, read-out: % Inhibition of Specific Control Binding
Source text: as §1

5-HT transporter (h) = 5-HT transporter (h) (Homo sapiens, UniProt P31645); assay: SafetyScreen44 binding assay 5-HT transporter (h); conditions: antagonist radioligand, read-out: % Inhibition of Specific Control Binding
Source text: as §1

delta (DOP) (h) = delta (DOP) (h) (Homo sapiens, UniProt P41143); assay: SafetyScreen44 binding assay delta (DOP) (h); conditions: agonist radioligand, read-out: % Inhibition of Specific Control Binding
Source text: as §1

[3] = biological target: N neuronal alpha 4beta 2 (h) (Homo sapiens, UniProt P17787+P43681); assay: SafetyScreen44 binding assay N neuronal alpha 4beta 2 (h); conditions: agonist radioligand, read-out: % Inhibition of Specific Control Binding
Source text: as §1

Na+ channel (site 2) = assay: SafetyScreen44 binding assay Na+ channel (site 2); conditions: at 1 μM; antagonist radioligand
Source text: as §1

[4] = biological target: norepinephrine transporter (h) (Homo sapiens, UniProt P23975); assay: SafetyScreen44 binding assay norepinephrine transporter (h); conditions: antagonist radioligand, read-out: % Inhibition of Specific Control Binding
Sequence of norepinephrine transporter (h) (P23975 whole entry): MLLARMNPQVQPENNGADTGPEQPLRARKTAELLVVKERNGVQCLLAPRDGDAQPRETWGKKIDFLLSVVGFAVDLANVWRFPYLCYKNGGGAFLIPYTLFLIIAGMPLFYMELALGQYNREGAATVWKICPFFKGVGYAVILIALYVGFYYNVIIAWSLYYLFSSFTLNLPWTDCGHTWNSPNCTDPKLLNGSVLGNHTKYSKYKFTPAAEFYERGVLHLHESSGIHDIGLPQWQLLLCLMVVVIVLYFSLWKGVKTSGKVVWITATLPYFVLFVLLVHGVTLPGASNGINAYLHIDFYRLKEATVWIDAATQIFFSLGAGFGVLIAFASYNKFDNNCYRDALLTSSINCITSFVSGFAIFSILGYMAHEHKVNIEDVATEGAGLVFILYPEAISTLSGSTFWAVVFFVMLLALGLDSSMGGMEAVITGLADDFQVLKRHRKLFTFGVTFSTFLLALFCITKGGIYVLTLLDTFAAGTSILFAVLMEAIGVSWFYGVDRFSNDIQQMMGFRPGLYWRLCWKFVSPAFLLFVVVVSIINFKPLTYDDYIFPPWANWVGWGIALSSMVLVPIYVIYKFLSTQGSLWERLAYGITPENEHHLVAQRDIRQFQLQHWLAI
Source text: as §1

GR (h) = GR (h) (Homo sapiens, UniProt P04150); assay: SafetyScreen44 binding assay GR (h); conditions: agonist radioligand, read-out: % Inhibition of Specific Control Binding
Source text: as §1

BZD (central) = assay: SafetyScreen44 binding assay BZD (central); conditions: at 1 μM; agonist radioligand
Source text: as §1

CCK1 (CCKA) (h) = CCK1 (CCKA) (h) (Homo sapiens, UniProt P32238); assay: SafetyScreen44 binding assay CCK1 (CCKA) (h); conditions: agonist radioligand, read-out: % Inhibition of Specific Control Binding
Source text: as §1

human AChE [5] = biological target: T1, human AChE (Homo sapiens, UniProt P22303); type: biochemical
T1 sequence (P22303 32-614): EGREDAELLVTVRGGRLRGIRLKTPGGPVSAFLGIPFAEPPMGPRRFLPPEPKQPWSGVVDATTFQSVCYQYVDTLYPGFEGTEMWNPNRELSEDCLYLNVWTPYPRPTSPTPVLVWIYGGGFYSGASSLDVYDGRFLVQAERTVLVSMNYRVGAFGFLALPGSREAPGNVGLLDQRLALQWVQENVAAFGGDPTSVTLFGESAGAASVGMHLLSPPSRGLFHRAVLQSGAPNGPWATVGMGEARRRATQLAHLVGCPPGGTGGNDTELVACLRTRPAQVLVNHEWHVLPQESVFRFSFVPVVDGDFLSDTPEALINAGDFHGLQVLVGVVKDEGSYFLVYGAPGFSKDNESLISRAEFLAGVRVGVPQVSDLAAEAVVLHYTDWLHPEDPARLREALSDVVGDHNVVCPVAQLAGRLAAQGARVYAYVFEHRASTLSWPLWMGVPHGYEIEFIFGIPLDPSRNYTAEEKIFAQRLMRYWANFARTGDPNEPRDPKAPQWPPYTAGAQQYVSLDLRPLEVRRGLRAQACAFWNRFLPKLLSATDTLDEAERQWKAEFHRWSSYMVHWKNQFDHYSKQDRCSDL

alpha 2A (h) = alpha 2A (h) (Homo sapiens, UniProt P08913); assay: SafetyScreen44 binding assay alpha 2A (h); conditions: antagonist radioligand, read-out: % Inhibition of Specific Control Binding
Source text: as §1

human AChE [6] = biological target: T1, human AChE; type: biochemical; remark: listed apart in the source
5-HT3 (h) = 5-HT3 (h) (Homo sapiens, UniProt P46098); assay: SafetyScreen44 binding assay 5-HT3 (h); conditions: antagonist radioligand, read-out: % Inhibition of Specific Control Binding
Source text: as §1

CB1 (h) = CB1 (h) (Homo sapiens, UniProt P21554); assay: SafetyScreen44 binding assay CB1 (h); conditions: agonist radioligand, read-out: % Inhibition of Specific Control Binding
Sequence of CB1 (h) (P21554 whole entry): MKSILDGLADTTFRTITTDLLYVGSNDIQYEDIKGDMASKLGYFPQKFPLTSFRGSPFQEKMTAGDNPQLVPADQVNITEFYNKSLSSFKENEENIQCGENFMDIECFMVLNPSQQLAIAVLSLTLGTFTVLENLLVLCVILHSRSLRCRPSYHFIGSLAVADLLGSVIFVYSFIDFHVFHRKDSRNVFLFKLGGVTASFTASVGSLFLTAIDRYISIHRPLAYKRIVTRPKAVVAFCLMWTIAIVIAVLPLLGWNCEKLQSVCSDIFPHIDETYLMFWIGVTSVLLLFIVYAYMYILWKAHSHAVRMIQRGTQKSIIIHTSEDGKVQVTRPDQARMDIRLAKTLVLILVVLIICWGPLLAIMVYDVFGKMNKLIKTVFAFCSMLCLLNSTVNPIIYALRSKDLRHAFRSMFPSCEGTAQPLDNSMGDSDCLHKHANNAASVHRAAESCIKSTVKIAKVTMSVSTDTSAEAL
Source text: as §1

[7] = system: Ca2+ channel (L, dihydropyridine site); assay: SafetyScreen44 binding assay Ca2+ channel (L, dihydropyridine site); conditions: at 1 μM; antagonist radioligand
Source text: as §1

D1 (h) = D1 (h) (Homo sapiens, UniProt P21728); assay: SafetyScreen44 binding assay D1 (h); conditions: antagonist radioligand, read-out: % Inhibition of Specific Control Binding
Sequence of D1 (h) (P21728 whole entry): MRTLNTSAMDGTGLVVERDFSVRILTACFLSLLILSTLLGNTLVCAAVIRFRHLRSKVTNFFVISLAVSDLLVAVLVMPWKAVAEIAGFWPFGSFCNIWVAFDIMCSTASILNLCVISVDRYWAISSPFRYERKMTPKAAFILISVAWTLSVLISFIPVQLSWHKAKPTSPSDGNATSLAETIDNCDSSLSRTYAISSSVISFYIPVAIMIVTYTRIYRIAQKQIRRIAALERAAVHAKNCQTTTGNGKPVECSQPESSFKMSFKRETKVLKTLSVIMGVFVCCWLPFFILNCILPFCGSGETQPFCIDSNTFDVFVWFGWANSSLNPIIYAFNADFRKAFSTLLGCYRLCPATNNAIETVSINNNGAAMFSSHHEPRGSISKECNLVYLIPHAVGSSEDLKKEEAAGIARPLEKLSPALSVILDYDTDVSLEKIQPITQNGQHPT
Source text: as §1

COX1(h) = COX1(h) (Homo sapiens, UniProt P23219); assay: SafetyScreen44 enzyme assay COX1(h); type: biochemical; conditions: read-out: % Inhibition of Control Values
Source text: as §1

KV channel = assay: SafetyScreen44 binding assay KV channel; conditions: at 1 μM; antagonist radioligand
Source text: as §1

M2 (h) = M2 (h) (Homo sapiens, UniProt P08172); assay: SafetyScreen44 binding assay M2 (h); conditions: antagonist radioligand, read-out: % Inhibition of Specific Control Binding
Source text: as §1

acetylcholinesterase (h) = acetylcholinesterase (h) (Homo sapiens, UniProt P22303); assay: SafetyScreen44 enzyme assay acetylcholinesterase (h); type: biochemical; conditions: at 1 μM
Sequence of acetylcholinesterase (h) (P22303 32-614): as the sequence (P22303 32-614) above
Source text: as §1

MAO-A = MAO-A (Rattus norvegicus, UniProt P21396); assay: SafetyScreen44 binding assay MAO-A; conditions: antagonist radioligand, read-out: % Inhibition of Specific Control Binding
Source text: as §1

V1a (h) = V1a (h) (Homo sapiens, UniProt P37288); assay: SafetyScreen44 binding assay V1a (h); conditions: agonist radioligand, read-out: % Inhibition of Specific Control Binding
Source text: as §1

CCN(CC)CCOc1ccc2c(c1)C(=O)c1cc(OCCN(CC)CC)ccc1-2 [tilorone]
% Inhibition of Specific Control Binding (NMDA): −10%
inhibition at 1 µM (beta 2 (h)): -6%
inhibition at 1 µM (M3 (h)): 17%
inhibition at 1 µM (5-HT1B (h)): 21%
IC50 ([1]; dose-response, 1% DMSO): 0.0144 µM
inhibition at 20 µM ([1]; eel AChE activity, at 20 μM, read-out: Percentage inhibition): 103%
assay interference test versus enzyme-free H2O2 reaction ([1]; parallel dose-response with 5 μM H2O2): likely represent true inhibition of the enzyme
inhibition at 20 µM ([1]; read-out: inhibition of enzyme activity compared to DMSO control (screen)): ≥ 50%
Hill slope, eel AChE dose-response ([1]; sixteen-point serial dilution, four-parameter fit): 0.62
inhibition at 1 µM (H2 (h)): -11%
inhibition at 1 µM (5-HT1A (h)): 12%
inhibition at 1 µM (kappa (h) (KOP)): 4%
IC50 [2]: > 0.05 µM
inhibition at 100 µM ([2]; at 100 μM, single point, read-out: inhibition of human BChE): 50%
inhibition at 1 µM (alpha 1A (h)): 26%
inhibition at 1 µM (beta 1 (h)): 5%
inhibition at 1 µM (5-HT2B (h)): -9%
inhibition at 1 µM (hERG potassium channel): -4%
inhibition at 1 µM (5-HT2A (h)): 25%
inhibition at 1 µM (COX2(h)): -1%
inhibition at 1 µM (dopamine transporter (h)): -9%
inhibition at 1 µM (ETA (h)): 5%
inhibition at 1 µM (mu (MOP) (h)): -4%
inhibition at 1 µM (PDE3A (h)): 2%
inhibition at 1 µM (PDE4D2 (h)): -15%
inhibition at 1 µM (A2A (h)): -4%
inhibition at 1 µM (Lck kinase (h)): 13%
inhibition at 1 µM (H1 (h)): -6%
inhibition at 1 µM (M1 (h)): 28%
inhibition at 1 µM (D2S (h)): 1%
inhibition at 1 µM (CB2 (h)): -16%
inhibition at 1 µM (5-HT transporter (h)): 44%
inhibition at 1 µM (delta (DOP) (h)): 0%
inhibition at 1 µM [3]: 0%
% Inhibition of Specific Control Binding (Na+ channel (site 2)): 1%
inhibition at 1 µM [4]: 14%
inhibition at 1 µM (GR (h)): -5%
% Inhibition of Specific Control Binding (BZD (central)): −9%
inhibition at 1 µM (CCK1 (CCKA) (h)): -5%
Bottom of curve, Eurofins human AChE (human AChE [5]; % Inhibition of Control Values): −7
Top of curve, Eurofins human AChE (human AChE [5]; % Inhibition of Control Values): 99
IC50 (human AChE [5]; third-party photometric assay, read-out: IC50 against human AChE (Eurofins Discovery)): 0.056 µM
Hill slope, Eurofins human AChE curve (human AChE [5]; two-fold dilution from 5 μM): 1.0
inhibition at 1 µM (alpha 2A (h)): 0%
IC50 (human AChE [6]; average of the colorimetric and Eurofins values, read-out: average IC50 for human AChE): 0.0646 µM
IC50 (human AChE [6]; colorimetric kit, n=2, read-out: IC50 against human AChE (colorimetric assay)): 0.0733 µM
Hill slope, human AChE colorimetric dose-response (human AChE [6]; two-fold 16-point dilution from 20 μM): 0.84
inhibition at 1 µM (5-HT3 (h)): 6%
inhibition at 1 µM (CB1 (h)): 0%
% Inhibition of Specific Control Binding [7]: 4%
inhibition at 1 µM (D1 (h)): -10%
inhibition at 1 µM (COX1(h)): -17%
% Inhibition of Specific Control Binding (KV channel): 0%
inhibition at 1 µM (M2 (h)): 26%
% Inhibition of Control Values (acetylcholinesterase (h)): 92%
inhibition at 1 µM (MAO-A): 3%
inhibition at 1 µM (V1a (h)): -1%
